US8785463B2, “GPR 119 agonists” (Cadila Healthcare Limited, priority 2010, dated 2014)

What was measured:
C57/BL6 mice = assay: Oral Glucose Tolerance Tests (OGTT) in C57/BL6 mice; assay type: in vivo; conditions: single oral dose, glucose load 3 gm/kg, serum glucose AUC, head 50 mg/kg
Procedure: In Vivo Efficacy Studies: Oral Glucose Tolerance Tests (OGTT) in C57/13L6 mice:
C57/BL6 mice of 6-8 week age are used for this experiment. Animals are grouped based on non-fasting serum glucose levels and kept on fasting for overnight (day before OGTT). On the experiment day, […], 30 min post dosing animals are bled for basal glucose level estimation and at the same time glucose load (3 gm/kg) will be administered per orally. Blood is collected at time points corresponding to 20, 40, 60 and 120 min after glucose load administration. Serum is separated for determination of glucose levels and change in area under curve for glucose is calculated and provided in Table 3 as % to reduction in AUC.

human GPR 119 receptor = target: T1, human GPR 119 receptor (Homo sapiens, UniProt Q8TDV5); assay: cAMP assay in stable cell line expressing recombinant human GPR 119 receptor; assay type: cell-based; conditions: for Fold increase in cyclic AMP with respective to DMSO: DMSO = 1
T1 construct: expressed in transfected cells
T1 sequence (Q8TDV5 1-335): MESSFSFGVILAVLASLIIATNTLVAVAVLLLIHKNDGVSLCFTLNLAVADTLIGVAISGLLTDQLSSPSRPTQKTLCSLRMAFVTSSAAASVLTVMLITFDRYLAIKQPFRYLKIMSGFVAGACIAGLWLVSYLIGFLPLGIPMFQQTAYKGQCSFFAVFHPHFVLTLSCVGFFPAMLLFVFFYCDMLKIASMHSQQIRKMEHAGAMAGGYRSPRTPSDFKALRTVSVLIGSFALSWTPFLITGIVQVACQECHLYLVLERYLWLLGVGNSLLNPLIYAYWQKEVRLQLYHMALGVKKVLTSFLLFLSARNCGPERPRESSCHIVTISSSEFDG
Text: A stable cell line expressing recombinant human GPR 119 receptor was established and used to investigate the efficacy of the compounds of the invention based on the intracellular levels of cyclic AMP (cAMP) using commercially available cAMP kits.

db/db mice = assay: Oral Glucose Tolerance Tests (OGTT) in db/db mice; assay type: in vivo; conditions: single oral dose 50 mg/kg, glucose load 2 g/kg, AUC glucose excursion vs vehicle control
Procedure: Oral Glucose Tolerance Tests (OGTT) in db/db mice:
db/db mice of 5-7 week age are used for this experiment. Animals were kept on fasting and are grouped based on fasting serum glucose levels and after grouping OGTT was performed. Each animal receive a single dose of vehicle/test compounds (50 mg/kg) administered orally, 30 min post dosing animals are bled for basal glucose level estimation and at the same time glucose load (2 g/kg) will be administered per orally. Blood is collected at time points corresponding to 30, 60 and 120 min after glucose load administration. Serum is separated for determination of glucose levels and change in area under curve for glucose and glucose excursion is calculated from Vehicle control with glucose load Vs water control group without glucose load and provided in Table 4 as % reduction in AUC glucose excursion Vs Vehicle control is calculated.

SMILES	% reduction in AUC at 50 mg/kg (C57/BL6 mice) [%]	Fold increase in cyclic AMP with respective to DMSO (human GPR 119 receptor; 10 nM compound) [fold]	Fold increase in cyclic AMP with respective to DMSO (human GPR 119 receptor; 100 nM compound) [fold]	Fold increase in cyclic AMP with respective to DMSO (human GPR 119 receptor; 1 uM compound) [fold]	% reduction in AUC at 50 mg/kg (db/db mice) [%]	EC50 (human GPR 119 receptor) [nM]
CCOC(=O)CN1C(=O)S/C(=C\c2ccc(Oc3ncnc(OC4CCN(C(=O)OC(C)(C)C)CC4)c3C)cc2)C1=O [Example 2, (Z)-tert-Butyl 4-((6-(4-((3-(2-ethoxy-2-oxoethyl)-2,4-dioxothiazolidin-5-ylidene)methyl)phenoxy)-5-methylpyrimidin-4-yl)oxy)piperidine-1-carboxylate]	13.0	5.90	8.00	12.56	47.3	–
Cc1c(Oc2cccc(/C=C3\SC(=O)NC3=O)c2)ncnc1OC1CCN(C(=O)OC(C)(C)C)CC1 [Example 9, (Z)-tert-Butyl 4-((6-(3-((2,4-dioxothiazolidin-5-ylidene)methyl)phenoxy)-5-methylpyrimidin-4-yl)oxy)piperidine-1-carboxylate]	32.4	2.54	4.86	6.57	69.1	43
Cc1c(Oc2ccc(/C=C3\SC(=O)NC3=O)cc2)ncnc1OC1CCN(C(=O)OC(C)(C)C)CC1 [Example 1, (Z)-tert-Butyl 4-((6-(4-((2,4-dioxothiazolidin-5-ylidene)methy 1)phenoxy)-5-methylpyrimidin-4-yl)oxy)piperidine-1-carboxylate]	35.0	0.90	2.27	3.96	56.2	88
CC(C)(C)OC(=O)N1CCC(Oc2cc(Oc3ccc(/C=C4\SC(=O)NC4=O)cc3)ncn2)CC1 [Example 12, (Z)-tert-Butyl 4-((6-(4-((2,4-dioxothiazolidin-5-ylidene)methyl)phenoxy)pyrimidin-4-yl)oxy)piperidine-1-carboxylate]	23.4	2.22	4.47	7.00	66.7	130
Cc1c(Oc2ccc(/C=C3\SC(=O)NC3=O)cc2)ncnc1OC1CCN(c2nc(C(C)C)no2)CC1 [Example 7, (Z)-5-(4-((6-((1-(3-iso-Propyl-1,2,4-oxadiazol-5-yl)piperidin-4-yl)oxy)-5-methylpyrimidin-4-yl)oxy)benzylidene)thiazolidine-2,4-dione]	29.0	0.79	1.32	2.24	22.4	124
